PubChem BioAssay (NCI)
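Five compound concentrations were applied to cells in 96-well plates for 48 hours; endpoints were derived by simple linear interpolation of the resulting dose-response curve. TGI denotes the concentration required for complete inhibition of growth.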

Legend:
Assay in all cases: NCI-60 cell line screen, 48 h
BT-549 breast = system: BT-549 breast
SK-OV-3 ovarian = system: SK-OV-3 ovarian
SR leukemia = system: SR leukemia
HS 578T breast = system: HS 578T breast
HL-60(TB) leukemia = system: HL-60(TB) leukemia
MDA-N = system: MDA-N
SF-295 CNS = system: SF-295 CNS
DU-145 prostate = system: DU-145 prostate
HT29 colon = system: HT29 colon
CCRF-CEM leukemia = system: CCRF-CEM leukemia
SF-268 CNS = system: SF-268 CNS
HOP-62 NSCLC = system: HOP-62 NSCLC
786-0 renal = system: 786-0 renal
NCI-H23 lung = system: NCI-H23 lung
NCI-H226 lung = system: NCI-H226 lung
M14 melanoma = system: M14 melanoma
MDA-MB-435 = system: MDA-MB-435
A498 renal = system: A498 renal
U251 CNS = system: U251 CNS
MALME-3M melanoma = system: MALME-3M melanoma
TK-10 renal = system: TK-10 renal
LOX IMVI melanoma = system: LOX IMVI melanoma
SK-MEL-28 melanoma = system: SK-MEL-28 melanoma
SF-539 CNS = system: SF-539 CNS
OVCAR-4 ovarian = system: OVCAR-4 ovarian
NCI/ADR-RES ovarian = system: NCI/ADR-RES ovarian
PC-3 prostate = system: PC-3 prostate
SK-MEL-2 melanoma = system: SK-MEL-2 melanoma
COLO 205 colon = system: COLO 205 colon
HCT-15 colon = system: HCT-15 colon
EKVX NSCLC = system: EKVX NSCLC
OVCAR-5 ovarian = system: OVCAR-5 ovarian
RPMI-8226 leukemia = system: RPMI-8226 leukemia
SK-MEL-5 melanoma = system: SK-MEL-5 melanoma
UACC-62 melanoma = system: UACC-62 melanoma
NCI-H460 lung = system: NCI-H460 lung
HCC-2998 colon = system: HCC-2998 colon
HCT-116 colon = system: HCT-116 colon
MCF7 breast = system: MCF7 breast
UO-31 renal = system: UO-31 renal
IGROV1 ovarian = system: IGROV1 ovarian
ACHN renal = system: ACHN renal
SN12C renal = system: SN12C renal
OVCAR-8 ovarian = system: OVCAR-8 ovarian
SNB-19 CNS = system: SNB-19 CNS
K-562 leukemia = system: K-562 leukemia
MDA-MB-231 breast = system: MDA-MB-231 breast
T-47D breast = system: T-47D breast
OVCAR-3 ovarian = system: OVCAR-3 ovarian
CAKI-1 renal = system: CAKI-1 renal
KM12 colon = system: KM12 colon
HOP-92 NSCLC = system: HOP-92 NSCLC
MOLT-4 leukemia = system: MOLT-4 leukemia
A549 NSCLC = system: A549 NSCLC
UACC-257 melanoma = system: UACC-257 melanoma
RXF 393 renal = system: RXF 393 renal
SW-620 colon = system: SW-620 colon
SNB-75 CNS = system: SNB-75 CNS
M19-MEL melanoma = system: M19-MEL melanoma
DLD-1 colon = system: DLD-1 colon
SNB-78 CNS = system: SNB-78 CNS
DMS 114 small cell lung = system: DMS 114 small cell lung
KM20L2 colon = system: KM20L2 colon
LXFL 529 NSCLC = system: LXFL 529 NSCLC
DMS 273 small cell lung = system: DMS 273 small cell lung
HOP-18 NSCLC = system: HOP-18 NSCLC

Compound: COc1ccc(/C(O)=C/c2nc3cccnc3nc2/C=C(\O)c2ccc(OC)cc2)cc1
- TGI (BT-549 breast): 53.5 µM
- TGI (SK-OV-3 ovarian): 31.7 µM
- TGI (SR leukemia): 51.2 µM
- TGI (HS 578T breast): 43.7 µM
- TGI (HL-60(TB) leukemia): > 100 µM
- TGI (MDA-N): > 100 µM
- TGI (SF-295 CNS): 46.3 µM
- TGI (DU-145 prostate): > 100 µM
- TGI (HT29 colon): 79.3 µM
- TGI (CCRF-CEM leukemia): > 100 µM
- TGI (SF-268 CNS): 28.6 µM
- TGI (HOP-62 NSCLC): 20 µM
- TGI (786-0 renal): 10.4 µM
- TGI (NCI-H23 lung): 30.7 µM
- TGI (NCI-H226 lung): 22.5 µM
- TGI (M14 melanoma): 69.2 µM
- TGI (MDA-MB-435): 76.4 µM
- TGI (A498 renal): > 100 µM
- TGI (U251 CNS): 37.7 µM
- TGI (MALME-3M melanoma): 52.2 µM
- TGI (TK-10 renal): 37.7 µM
- TGI (LOX IMVI melanoma): 44.5 µM
- TGI (SK-MEL-28 melanoma): 69 µM
- TGI (SF-539 CNS): 25.4 µM
- TGI (OVCAR-4 ovarian): 18.3 µM
- TGI (NCI/ADR-RES ovarian): 53 µM
- TGI (PC-3 prostate): > 100 µM
- TGI (SK-MEL-2 melanoma): 91.7 µM
- TGI (COLO 205 colon): > 100 µM
- TGI (HCT-15 colon): > 100 µM
- TGI (EKVX NSCLC): 82.1 µM
- TGI (OVCAR-5 ovarian): > 100 µM
- TGI (RPMI-8226 leukemia): > 100 µM
- TGI (SK-MEL-5 melanoma): 78.3 µM
- TGI (UACC-62 melanoma): 44.7 µM
- TGI (NCI-H460 lung): 32.6 µM
- TGI (HCC-2998 colon): > 100 µM
- TGI (HCT-116 colon): 52.3 µM
- TGI (MCF7 breast): 50.1 µM
- TGI (UO-31 renal): 71.2 µM
- TGI (IGROV1 ovarian): 25.4 µM
- TGI (ACHN renal): 53.5 µM
- TGI (SN12C renal): 42.5 µM
- TGI (OVCAR-8 ovarian): 35.6 µM
- TGI (SNB-19 CNS): 57.5 µM
- TGI (K-562 leukemia): > 100 µM
- TGI (MDA-MB-231 breast): 31.2 µM
- TGI (T-47D breast): 86.1 µM
- TGI (OVCAR-3 ovarian): 38.8 µM
- TGI (CAKI-1 renal): 46.5 µM
- TGI (KM12 colon): > 100 µM
- TGI (HOP-92 NSCLC): > 100 µM
- TGI (MOLT-4 leukemia): > 100 µM
- TGI (A549 NSCLC): 39.6 µM
- TGI (UACC-257 melanoma): > 100 µM

Compound: Cc1ccc(NC(=O)C(=O)C(C#N)c2nc(-c3ccc(-c4ccccc4)cc3)cs2)c(C)c1 (configuration not stated)
- TGI (SK-OV-3 ovarian): > 100 µM
- TGI (SR leukemia): > 100 µM
- TGI (SF-295 CNS): > 100 µM
- TGI (HT29 colon): > 1 µM
- TGI (RXF 393 renal): > 100 µM
- TGI (SF-268 CNS): > 100 µM
- TGI (HOP-62 NSCLC): > 100 µM
- TGI (786-0 renal): > 100 µM
- TGI (SW-620 colon): > 100 µM
- TGI (NCI-H23 lung): > 1 µM
- TGI (NCI-H226 lung): > 100 µM
- TGI (M14 melanoma): > 100 µM
- TGI (SNB-75 CNS): > 100 µM
- TGI (M19-MEL melanoma): > 100 µM
- TGI (DLD-1 colon): > 100 µM
- TGI (A498 renal): > 100 µM
- TGI (U251 CNS): > 100 µM
- TGI (MALME-3M melanoma): > 100 µM
- TGI (TK-10 renal): > 100 µM
- TGI (LOX IMVI melanoma): > 100 µM
- TGI (SK-MEL-28 melanoma): > 100 µM
- TGI (SF-539 CNS): > 100 µM
- TGI (OVCAR-4 ovarian): > 100 µM
- TGI (SNB-78 CNS): > 100 µM
- TGI (SK-MEL-2 melanoma): > 100 µM
- TGI (DMS 114 small cell lung): > 100 µM
- TGI (KM20L2 colon): > 100 µM
- TGI (COLO 205 colon): > 100 µM
- TGI (LXFL 529 NSCLC): > 100 µM
- TGI (HCT-15 colon): > 100 µM
- TGI (EKVX NSCLC): > 100 µM
- TGI (DMS 273 small cell lung): > 100 µM
- TGI (OVCAR-5 ovarian): > 100 µM
- TGI (RPMI-8226 leukemia): > 100 µM
- TGI (SK-MEL-5 melanoma): > 100 µM
- TGI (UACC-62 melanoma): > 100 µM
- TGI (NCI-H460 lung): > 100 µM
- TGI (HCC-2998 colon): > 100 µM
- TGI (HCT-116 colon): > 100 µM
- TGI (UO-31 renal): > 100 µM
- TGI (IGROV1 ovarian): > 100 µM
- TGI (ACHN renal): > 100 µM
- TGI (SN12C renal): > 100 µM
- TGI (OVCAR-8 ovarian): > 100 µM
- TGI (SNB-19 CNS): > 100 µM
- TGI (OVCAR-3 ovarian): > 100 µM
- TGI (CAKI-1 renal): > 100 µM
- TGI (HOP-92 NSCLC): > 1 µM
- TGI (MOLT-4 leukemia): > 100 µM
- TGI (A549 NSCLC): > 100 µM
- TGI (UACC-257 melanoma): > 100 µM
- TGI (HOP-18 NSCLC): > 100 µM
